{"source": "patent US9351998B2", "about": "“Methods of nourishing animals” (MariCal, Inc., priority 2008, dated 2016)", "key": {"[1]": {"test_system": "chick jejunal CaSR", "experiment": "phospho-ERK immunoblot of HEK cells transfected with chick jejunal CaSR cDNA after increase in extracellular Ca2+", "format": "cell-based, chicken", "details": "extracellular Ca2+ increased 0.5 mM to 10 mM", "protocol": "HEK-293 cells were plated into 6-well plates so that the cells were 90% confluent at the time of transfection. The linearized and non-linearized plasmids were ethanol precipitated and quantified spectrophotometrically. A ratio of DNA to lipofectamine of 1:3.5 (4 μg of DNA and 14 μl Lipofectamine 2000) was used for the transfection procedure. To provide a negative control, only Lipofectamine was added to some HEK cells. After exposure to lipofectamine, hygromycin B (400 μg/ml) was used to select for HEK cells that had been transfected since the plasmid containing the putative CaSR sequence also contained a hygromycin resistance element.\nAt the start of hygromycin selection, flasks were about 40% confluent. All flasks experienced a high percentage of die off cells. After an interval of 10 days, all the cells in the negative control flasks were dead. […] Linear flask 1 and non-linear flask 1 were trypsinized by addition of 200 μl trypsin to redistribute dense colonies and prevent overcrowding 10 days after the start of hygromycin selection. New complete media was added containing 400 μg/ml hygromycin. At day 14, flasks had multiple colonies that were well spread out and were beginning to look overcrowded. Each flask was trypsinized, centrifuged and re-plated in a new flask, still under hygromycin selection. At day 17, transfected HEK cells were 60% confluent. […]"}, "[2]": {"target": "T1, mammalian CaSR (Homo sapiens, UniProt P41180)", "T1 construct": "expressed in transfected cells; host or cells: HEK cells stably expressing the mammalian CaSR", "T1 sequence (P41180 20-1078)": "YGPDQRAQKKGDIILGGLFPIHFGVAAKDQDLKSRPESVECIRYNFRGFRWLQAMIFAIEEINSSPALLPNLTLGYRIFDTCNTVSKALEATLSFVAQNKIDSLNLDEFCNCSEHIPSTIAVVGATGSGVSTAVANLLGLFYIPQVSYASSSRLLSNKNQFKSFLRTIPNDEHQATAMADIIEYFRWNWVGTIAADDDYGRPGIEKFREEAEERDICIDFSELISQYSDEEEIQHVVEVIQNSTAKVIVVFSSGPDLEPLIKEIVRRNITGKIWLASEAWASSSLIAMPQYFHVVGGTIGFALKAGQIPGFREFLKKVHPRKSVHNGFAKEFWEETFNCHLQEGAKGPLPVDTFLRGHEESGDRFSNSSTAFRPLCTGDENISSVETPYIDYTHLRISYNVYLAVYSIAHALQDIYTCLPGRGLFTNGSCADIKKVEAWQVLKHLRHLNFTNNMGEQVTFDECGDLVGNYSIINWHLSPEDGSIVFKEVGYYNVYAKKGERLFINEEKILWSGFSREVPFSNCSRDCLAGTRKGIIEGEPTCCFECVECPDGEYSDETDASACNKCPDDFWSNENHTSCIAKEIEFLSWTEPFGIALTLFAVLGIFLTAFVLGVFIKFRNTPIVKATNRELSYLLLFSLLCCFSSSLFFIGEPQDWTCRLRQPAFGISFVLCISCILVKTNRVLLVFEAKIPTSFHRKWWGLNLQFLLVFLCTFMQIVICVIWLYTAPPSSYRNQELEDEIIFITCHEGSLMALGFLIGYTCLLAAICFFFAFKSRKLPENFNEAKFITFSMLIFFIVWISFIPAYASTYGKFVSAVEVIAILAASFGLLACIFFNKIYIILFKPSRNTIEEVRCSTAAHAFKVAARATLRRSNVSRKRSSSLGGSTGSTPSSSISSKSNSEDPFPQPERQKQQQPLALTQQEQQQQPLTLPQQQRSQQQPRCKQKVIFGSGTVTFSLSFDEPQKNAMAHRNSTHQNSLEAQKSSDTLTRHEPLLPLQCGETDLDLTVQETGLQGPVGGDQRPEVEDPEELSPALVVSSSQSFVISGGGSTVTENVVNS", "experiment": "FURA2 ratio imaging fluorimetry of HEK cells stably expressing mammalian CaSR", "format": "cell-based", "excerpt": "(§1) All methods and equipment utilized to perform experiments on HEK cells have been reported previously (Gama, L. and Breitwieser, G. E. 1998. A carboxyl-terminal domain controls the cooperativity for extracellular Ca2+ activation of the human calcium sensing receptor. A study with receptor-green fluorescent protein fusions. J. Biol. Chem. 273, 29712-29718; Bai, M., Quinn, S., Trivedi, S., Kifor, 0., Pearce, S. H., Pollak, M. R., Krapcho, K., Hebert, S. C. and Brown, E. M. 1996. Expression and characterization of inactivating and activating mutations in the human Ca2+o-sensing receptor. J. Biol. Chem. 271, 19537-19544). Untransfected HEK cells or, alternatively, cells transfected and expressing CaSR protein were cultured in Dulbecco's Modified Eagle Medium containing 10% fetal bovine serum and 1% penicillin-streptomycin in 75 cm^2 flasks until they reached confluence. Media was removed from the flasks and cells were loaded by exposure to Loading Buffer (125 mM NaCl, 4 mM KCl, 1.0 mMCaCl2, 1.0 mM MgCl2, 1 mM NaH2PO4, 20 mM HEPES, 1 gm/liter bovine serum albumin, and 1 gm/l glucose, pH ˜7.4, osmolality ˜285) containing 4.1 micromolar FURA2-AM (Molecular Probes Inc. Eugene, Oreg.) for 2 hr. Cells were then scraped from the surface of the flask using a standard cell scraper (Costar 3010, Corning Inc.). Cells were then pelleted from the suspension by low speed centrifugation to remove loading buffer and rinsed twice to remove extracellular FURA2 dye by two sequential suspensions and pelleting steps using low speed centrifugation. Immediately prior to the start of the experiment, cells were resuspended in various experimental buffers for analyses as described below. The Standard Experimental Buffer used for many studies was composed of: 125 mM NaCl, 4 mM KCl, 0.5 mMCaCl2, 0.5 mM MgCl2, 20 mM HEPES, 1 g/l glucose, pH ˜7.4, osmolality ˜285. All other buffers were variations on this basic composition where specific components within the Standard Experimental Buffer were varied while the remaining components were held constant.\n(§2) Cell suspensions consisting of a total volume of 3 ml were analyzed in a PTI fluorimeter (PTI Model 814 Photomultiplier Detection System equipped with SC-500 Shutter Controller and PTI Driver and Analysis Software) within approximately 20 min after exposure to experimental buffers. Data was acquired using standard ratio image analysis as described previously using a data acquisition rate of 1.3 sec. for 500 or 1000 second intervals.\n(§3) In selected experiments, the detergent Triton X-100 was added in order to lyse the cells and quantify differences in FURA2 ratio fluorescence. Triton X-100 was added to the cells to obtain a maximal fluorescence signal from the FURA2 for purposes of quantification.\nExperiments on HEK cells were performed generally as described in Example 6 herein. […] Subsequent addition of Ca2+ to a final concentration of 5 mM produced an additional response (see FIG. 26A). No response was observed upon addition of 0.025% Mintrex Zn after the addition of experimental buffer (EB) (see FIG. 26B). […] In addition, the magnitude of the CaSR response to 5 mM Ca2+ was diminished by previous addition of Mintrex Zn.\nFor mammalian CaSR experiments, two individual aliquots from a single pool of HEK cells that stably express the recombinant mammalian CaSR protein were used for ratio imaging fluorimetry assays of CaSR activation generally as described in Example 6 herein. Addition of Ca++ to a final concentration of 2.5 mM produced a CaSR response that was also followed by responses after subsequent additions of 0.025% Zn proteinate followed by Ca++ to a final concentration of 7.5 mM (FIG. 29B). […] There was also a response to a subsequent dose of Ca++ to a final concentration of 7.5 mM (FIG. 29B). In both tracings, the detergent Triton X-100 was added as a final step to lyse the cells.\nExperiments on HEK cells were performed generally as described in Example 6 herein. […]"}, "[3]": {"test_system": "avian CaSR", "experiment": "FURA2 ratio imaging fluorimetry of HEK cells stably expressing avian (chicken) CaSR", "format": "cell-based", "excerpt": "as §1, §2, §3\nThe ability of the CaSR modulator MC0100 to potentiate the response of avian and mammalian CaSRs to the chelated mineral amino acid complex, ZnPro, was tested. For avian CaSR experiments, three individual aliquots from a single pool of HEK cells that stably express the recombinant avian CaSR protein were used for ratio imaging fluorimetry assays of CaSR activation generally as described in Example 6 herein. […] In all aliquots, the detergent Triton X-100 was added as the last addition to lyse the cells (FIG. 29A).\nFrom a single pool of HEK cells stably expressing the avian CaSR, aliquots of cells were removed and analyzed using ratio imaging fluorimetry generally as described in Example 6 herein. After a standard addition of Ca++ to a final concentration of 2.5 mM, either 0.0025%, 0.025% or 0.25% Zinc Proteinate was added followed by a second addition of Ca++ to a final concentration of 7.5 mM. Subsequently, an aliquot of the detergent Triton X-100 was added to lyse the cells. […] The magnitude of the subsequent CaSR response to Ca++ was reduced via increasing Zn Proteinate stimulation.\nFluorimetry analysis was performed on HEK cells expressing the recombinant chicken CaSR protein generally as described in Example 6 herein."}, "[4]": {"target": "T2, recombinant human CaSR protein (Homo sapiens, UniProt P41180)", "T2 construct": "expressed in transfected cells; host or cells: HEK cells", "T2 sequence (P41180 20-1078)": "T1 sequence (P41180 20-1078)", "experiment": "FURA2 ratio fluorimetry of HEK cells expressing recombinant human CaSR", "format": "cell-based", "excerpt": "as §1, §2, §3"}, "[5]": {"target": "recombinant CaSR protein (Homo sapiens, UniProt P41180)", "details": "concentrations of spermine and calcium present in sow's milk (FIG. 20C); cited from earlier work"}, "[6]": {"test_system": "chicken CaSR", "sequence (as listed by the source)": "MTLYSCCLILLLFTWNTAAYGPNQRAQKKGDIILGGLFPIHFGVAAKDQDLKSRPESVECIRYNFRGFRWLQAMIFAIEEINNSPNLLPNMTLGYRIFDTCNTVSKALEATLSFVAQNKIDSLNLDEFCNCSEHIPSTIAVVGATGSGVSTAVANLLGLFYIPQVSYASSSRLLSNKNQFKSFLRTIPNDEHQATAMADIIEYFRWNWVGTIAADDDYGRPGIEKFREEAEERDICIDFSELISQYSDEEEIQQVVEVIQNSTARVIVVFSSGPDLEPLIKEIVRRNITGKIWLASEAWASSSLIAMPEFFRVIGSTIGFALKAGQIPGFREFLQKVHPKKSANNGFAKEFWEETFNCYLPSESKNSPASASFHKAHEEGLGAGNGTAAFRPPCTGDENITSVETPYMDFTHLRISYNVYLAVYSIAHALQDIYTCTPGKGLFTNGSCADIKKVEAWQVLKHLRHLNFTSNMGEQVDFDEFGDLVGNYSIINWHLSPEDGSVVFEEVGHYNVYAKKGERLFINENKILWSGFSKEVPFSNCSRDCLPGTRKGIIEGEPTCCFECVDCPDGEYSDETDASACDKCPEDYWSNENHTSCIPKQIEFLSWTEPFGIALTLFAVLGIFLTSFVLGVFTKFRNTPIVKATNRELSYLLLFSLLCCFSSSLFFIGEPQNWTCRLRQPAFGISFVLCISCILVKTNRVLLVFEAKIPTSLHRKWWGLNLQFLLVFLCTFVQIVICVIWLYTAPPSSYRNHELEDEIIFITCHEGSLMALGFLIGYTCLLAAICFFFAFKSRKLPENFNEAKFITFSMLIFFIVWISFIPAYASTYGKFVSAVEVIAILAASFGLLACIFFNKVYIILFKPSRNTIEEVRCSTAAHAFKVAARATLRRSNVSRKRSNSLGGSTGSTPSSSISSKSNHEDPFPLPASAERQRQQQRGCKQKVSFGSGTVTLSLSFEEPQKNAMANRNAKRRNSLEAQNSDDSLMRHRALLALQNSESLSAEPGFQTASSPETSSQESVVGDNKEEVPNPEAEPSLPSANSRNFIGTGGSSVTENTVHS", "experiment": "CaSR dependent ERK 1/2 phosphorylation (Western blot) in HEK cells transfected with chicken CaSR", "format": "cell-based", "details": "various concentrations of bacitracin Zn", "protocol": "HEK cells transfected with the chicken CaSR were cultured under standard conditions (DMEM with 10% FCS). Confluent flasks were serum-starved overnight in DMEM supplemented with 0.2% BSA and pre-incubated for 60 min at 37° C. in the following medium: 125 mM NaCl, 4 mM KCl, 20 mM Hepes, 0.1% glucose, 0.8 mM NaH2PO4, 1 mM MgCl2, 0.1% BSA, 0.5 mM CaCl2, pH 7.45. The cells were then incubated in the same medium without BSA in the presence of different mineral chelates at different concentrations (see below) for 15 min at 37° C. At the end of the incubation treatment media was removed and cells were washed with PBS and than lysed in 250 microliter of M-PER lysis buffer (Pierce Chemical Company, Rockford, Ill.) containing 10 ul/ml of protease inhibitors (Pierce Chemical Company, Rockford, Ill.). Cell lysates were centrifuged for 10 min at 4° C. at 14,000×g. The protein content in the supernatants was analyzed using the BCA Protein Assay system from Pierce Chemical Company, Rockford, Ill. Equal amounts of protein (20 ug) were combined with 4× loading buffer and […] DTT, heated to 95° C., separated by SDS gel electrophoresis and electrotransferred to PVD membranes. The membranes were incubated in 1% BSA in TBS-T (TRIS-buffered saline containing Tween 20 at 0.1%) overnight. After 4 washes in TBS-T the membranes were incubated with primary antibody (anti phosphoERK at 1:400 dilution; this antibody recognizes the phosphorylated form of ERK 1/2) for 1.5 hours at room temperatures, washed 4 times and incubated with secondary antibody (anti mouse at 1:50,000 dilution). After 4 washes in TBS-T the membranes were developed using the ECL Western Blotting system.\nThe experiments described in FIGS. 34 A and B used the following metal chelate treatments: ZnProteinate, CuProteinate and MnProteinate (Balchem Corporation, New Hampton, N.Y.) at the following concentrations: 0.025% and 2.5%, or at a concentration of 0.025% with 1 micromolar MC 0100 (a calcimimetic); or various concentrations of bacitracin Zn."}}, "note": "“Also recorded” adds a separate entry of the source.", "data": [{"compound": "[Ca+2]", "note": "[Ca2+]", "values": [{"measurement": "activation of the ERK kinase pathway (phospho-ERK)", "setting": "[1]", "result": "selective activation"}]}, {"compound": "N[C@@H](Cc1ccccc1)C(=O)O", "note": "[L-Phenylalanine]", "values": [{"measurement": "effect on Mintrex Zn inhibition of CaSR response to Ca++ stimulus", "setting": "[2]; 3 mM L-Phe after 0.025% Mintrex Zn, 1.5 mM Ca++, Ca++ to 5 mM", "result": "reversed Mintrex-Zn's inhibition"}, {"measurement": "effect on Mintrex Zn inhibition of CaSR response to Ca++ stimulus", "setting": "[3]; 3 mM L-Phe after 0.25% Mintrex Zn, Ca++ to 7.5 mM", "result": "reversed Mintrex-Zn's inhibition"}]}, {"compound": "CC(C)(Cc1ccc2ccccc2c1)NC[C@@H](O)COc1cccc(Cl)c1C#N", "note": "[MC106]", "values": [{"measurement": "effect on CaSR response to 2.5 mM Ca2+", "setting": "[2]; 1 micromolar MC106 added first", "result": "eliminated"}, {"measurement": "effect on subsequent CaSR response to 5 mM Ca2+", "setting": "[2]; 1 micromolar MC106 added first", "result": "reduced"}, {"measurement": "CaSR response to the modulator itself", "setting": "[2]; 1 micromolar MC106 in DMSO", "result": "did not itself produce a CaSR response; also recorded: did not elicit a CaSR response"}, {"measurement": "effect on CaSR responses to 0.25% Mintrex Zn or 5.5 mM Ca2+", "setting": "[2]; initial addition of 1 micromolar MC106", "result": "reduced or eliminated responses"}, {"measurement": "effect of modulator on CaSR stimulation by Mintrex Zn", "setting": "[2]; pre-addition of MC106 (FIG. 30D)", "result": "suppress the stimulation"}, {"measurement": "effect of prior modulator on CaSR response to Zn Proteinate", "setting": "[3]; 1 micromolar MC106, 0.25% Zinc Proteinate", "result": "reduced the avian CaSR's response"}]}, {"compound": "NCCCN", "note": "[diaminopropane]", "values": [{"measurement": "activation of recombinant human CaSR (intracellular calcium)", "setting": "[4]", "result": "sharp increase in intracellular calcium"}]}, {"compound": "N=C(N)NCCC[C@H](N)C(=O)O.NCC(=O)O.NCC(=O)O", "note": "[gly-gly-arg, glycine-glycine-arginine]", "values": [{"measurement": "activation of recombinant human CaSR (intracellular calcium)", "setting": "[4]", "result": "significant activation"}]}, {"compound": "NCCCNCCCCNCCCN", "note": "[spermine]", "values": [{"measurement": "activation of recombinant CaSR", "setting": "[5]", "result": "activated"}]}, {"compound": "Casein", "values": [{"measurement": "activation of recombinant human CaSR (intracellular calcium)", "setting": "[4]", "result": "acts as an agonist"}]}, {"compound": "bacitracin Zn", "values": [{"measurement": "ERK1/2 phosphorylation as compared to Ca++ with MC0100", "setting": "[6]", "result": "increase in ERK1/2 phosphorylation"}]}, {"compound": "bovine serum albumin: a protein that also binds calcium", "values": [{"measurement": "activation of recombinant human CaSR (intracellular calcium)", "setting": "[4]", "result": "has no effect"}]}]}
